Laboratory results as given in PubChem BioAssay (NCI).
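Exposure lasted 48 hours, with cells grown in 96-well plates and compounds tested at five concentrations. Abbreviation: GI50, concentration required for 50% inhibition of growth. TGI marks complete inhibition of growth.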

Legend:
Assay in all cases: DTP human tumour cell line panel, 48 h
OVCAR-5 ovarian = test system: OVCAR-5 ovarian
HT29 colon = test system: HT29 colon
TK-10 renal = test system: TK-10 renal
A498 renal = test system: A498 renal
SK-MEL-28 melanoma = test system: SK-MEL-28 melanoma
UO-31 renal = test system: UO-31 renal
UACC-62 melanoma = test system: UACC-62 melanoma
A549 NSCLC = test system: A549 NSCLC
UACC-257 melanoma = test system: UACC-257 melanoma
MDA-MB-231 breast = test system: MDA-MB-231 breast
NCI/ADR-RES ovarian = test system: NCI/ADR-RES ovarian
786-0 renal = test system: 786-0 renal
SK-OV-3 ovarian = test system: SK-OV-3 ovarian
MDA-MB-435 = test system: MDA-MB-435
SK-MEL-5 melanoma = test system: SK-MEL-5 melanoma
SW-620 colon = test system: SW-620 colon
PC-3 prostate = test system: PC-3 prostate
DU-145 prostate = test system: DU-145 prostate
ACHN renal = test system: ACHN renal
IGROV1 ovarian = test system: IGROV1 ovarian
HCT-116 colon = test system: HCT-116 colon
SR leukemia = test system: SR leukemia
HL-60(TB) leukemia = test system: HL-60(TB) leukemia
U251 CNS = test system: U251 CNS
OVCAR-8 ovarian = test system: OVCAR-8 ovarian
NCI-H522 lung = test system: NCI-H522 lung
M14 melanoma = test system: M14 melanoma
SF-539 CNS = test system: SF-539 CNS
BT-549 breast = test system: BT-549 breast
OVCAR-4 ovarian = test system: OVCAR-4 ovarian
NCI-H226 lung = test system: NCI-H226 lung
HS 578T breast = test system: HS 578T breast
NCI-H460 lung = test system: NCI-H460 lung
SF-295 CNS = test system: SF-295 CNS
SNB-75 CNS = test system: SNB-75 CNS
SNB-19 CNS = test system: SNB-19 CNS
RPMI-8226 leukemia = test system: RPMI-8226 leukemia
HCC-2998 colon = test system: HCC-2998 colon
MOLT-4 leukemia = test system: MOLT-4 leukemia
SF-268 CNS = test system: SF-268 CNS
MCF7 breast = test system: MCF7 breast
KM12 colon = test system: KM12 colon
OVCAR-3 ovarian = test system: OVCAR-3 ovarian
HCT-15 colon = test system: HCT-15 colon
SK-MEL-2 melanoma = test system: SK-MEL-2 melanoma
HOP-62 NSCLC = test system: HOP-62 NSCLC
CAKI-1 renal = test system: CAKI-1 renal
RXF 393 renal = test system: RXF 393 renal
COLO 205 colon = test system: COLO 205 colon
CCRF-CEM leukemia = test system: CCRF-CEM leukemia
K-562 leukemia = test system: K-562 leukemia
SN12C renal = test system: SN12C renal
LOX IMVI melanoma = test system: LOX IMVI melanoma

Work on CCCc1n(Cc2ccc3ccccc3c2)c2ccccc2[n+]1Cc1ccc2ccccc2c1 yielded a GI50 (OVCAR-5 ovarian) of 0.544 µM, a TGI (OVCAR-5 ovarian) of 1.98 µM and a GI50 (HT29 colon) of 0.323 µM. It also gave a TGI (HT29 colon) of 1.28 µM, a GI50 (TK-10 renal) of 0.461 µM and a TGI (TK-10 renal) of 1.68 µM. For the same molecule, the GI50 (A498 renal) was 0.356 µM, the TGI (A498 renal) was 1.98 µM and the GI50 (SK-MEL-28 melanoma) was 0.577 µM. The TGI (SK-MEL-28 melanoma) was 1.99 µM, the GI50 (UO-31 renal) was 1.49 µM and the TGI (UO-31 renal) was 3 µM. For the same molecule, the GI50 (UACC-62 melanoma) was 0.318 µM, the TGI (UACC-62 melanoma) was 1.42 µM and the GI50 (A549 NSCLC) was 0.619 µM. For the same molecule, the TGI (A549 NSCLC) was 2.04 µM, the GI50 (UACC-257 melanoma) was 0.295 µM and the TGI (UACC-257 melanoma) was 1.12 µM. The GI50 (MDA-MB-231 breast) was 0.301 µM, the TGI (MDA-MB-231 breast) was 1.42 µM and the GI50 (NCI/ADR-RES ovarian) was 3.56 µM. The TGI (NCI/ADR-RES ovarian) was 53.9 µM, the GI50 (786-0 renal) was 1.06 µM and the TGI (786-0 renal) was 2.56 µM. For the same molecule, the GI50 (SK-OV-3 ovarian) was 0.488 µM, the TGI (SK-OV-3 ovarian) was 1.74 µM and the GI50 (MDA-MB-435) was 0.314 µM. For the same molecule, the TGI (MDA-MB-435) was 1.26 µM, the GI50 (SK-MEL-5 melanoma) was 0.161 µM and the TGI (SK-MEL-5 melanoma) was 0.311 µM. The GI50 (SW-620 colon) was 0.429 µM, the TGI (SW-620 colon) was 1.7 µM and the GI50 (PC-3 prostate) was 0.354 µM. For the same molecule, the TGI (PC-3 prostate) was 1.55 µM, the GI50 (DU-145 prostate) was 0.554 µM and the TGI (DU-145 prostate) was 1.85 µM. The GI50 (ACHN renal) was 1.25 µM and the TGI (ACHN renal) was 2.57 µM.

Work on O=C1C=C(Nc2ccc([N+](=O)[O-])cc2)c2ccccc2C1=O yielded a GI50 (OVCAR-5 ovarian) of 13.3 µM, a TGI (OVCAR-5 ovarian) of 27.5 µM and a GI50 (IGROV1 ovarian) of 5.99 µM. It also gave a TGI (IGROV1 ovarian) of 20.8 µM, a GI50 (HT29 colon) of 18.6 µM and a TGI (HT29 colon) of 42.3 µM. It also gave a GI50 (HCT-116 colon) of 2.79 µM, a TGI (HCT-116 colon) of 12.4 µM and a GI50 (SR leukemia) of 2.55 µM. The TGI (SR leukemia) was greater than 100 µM, the GI50 (A498 renal) was 1.47 µM and the TGI (A498 renal) was 6.75 µM. The GI50 (HL-60(TB) leukemia) was 2.67 µM, the TGI (HL-60(TB) leukemia) was 7.19 µM and the GI50 (SK-MEL-28 melanoma) was 3.75 µM. For the same molecule, the TGI (SK-MEL-28 melanoma) was 16.6 µM, the GI50 (UO-31 renal) was 1.85 µM and the TGI (UO-31 renal) was 12.5 µM. The GI50 (U251 CNS) was 3.07 µM, the TGI (U251 CNS) was 12.9 µM and the GI50 (OVCAR-8 ovarian) was 2.74 µM. The TGI (OVCAR-8 ovarian) was 12.6 µM, the GI50 (UACC-62 melanoma) was 1.9 µM and the TGI (UACC-62 melanoma) was 5.88 µM. The GI50 (NCI-H522 lung) was 2.91 µM, the TGI (NCI-H522 lung) was 14.4 µM and the GI50 (M14 melanoma) was 3.49 µM. For the same molecule, the TGI (M14 melanoma) was 16.7 µM, the GI50 (SF-539 CNS) was 3.5 µM and the TGI (SF-539 CNS) was 14.7 µM. For the same molecule, the GI50 (BT-549 breast) was 3.56 µM, the TGI (BT-549 breast) was 14.5 µM and the GI50 (OVCAR-4 ovarian) was 2.07 µM. For the same molecule, the TGI (OVCAR-4 ovarian) was 11.2 µM, the GI50 (A549 NSCLC) was 3.96 µM and the TGI (A549 NSCLC) was 16.5 µM. It also gave a GI50 (NCI-H226 lung) of 12.6 µM, a TGI (NCI-H226 lung) of 28.1 µM and a GI50 (HS 578T breast) of 1.78 µM. For the same molecule, the TGI (HS 578T breast) was 9.96 µM, the GI50 (NCI-H460 lung) was 4.45 µM and the TGI (NCI-H460 lung) was 17.2 µM. The GI50 (SF-295 CNS) was 4.93 µM, the TGI (SF-295 CNS) was 18 µM and the GI50 (SNB-75 CNS) was 1.19 µM. The TGI (SNB-75 CNS) was 9.91 µM, the GI50 (SNB-19 CNS) was 4.71 µM and the TGI (SNB-19 CNS) was 18.1 µM. For the same molecule, the GI50 (UACC-257 melanoma) was 3.14 µM, the TGI (UACC-257 melanoma) was 13.8 µM and the GI50 (MDA-MB-231 breast) was 1.72 µM. The TGI (MDA-MB-231 breast) was 13.2 µM, the GI50 (NCI/ADR-RES ovarian) was 2.93 µM and the TGI (NCI/ADR-RES ovarian) was 29.3 µM. It also gave a GI50 (RPMI-8226 leukemia) of 3.37 µM, a TGI (RPMI-8226 leukemia) of 22.4 µM and a GI50 (HCC-2998 colon) of 9.09 µM. For the same molecule, the TGI (HCC-2998 colon) was 22.4 µM, the GI50 (786-0 renal) was 11.6 µM and the TGI (786-0 renal) was 33.8 µM. It also gave a GI50 (MOLT-4 leukemia) of 3.55 µM, a TGI (MOLT-4 leukemia) of 12.7 µM and a GI50 (SK-OV-3 ovarian) of 11.6 µM. It also gave a TGI (SK-OV-3 ovarian) of 27.1 µM, a GI50 (MDA-MB-435) of 0.392 µM and a TGI (MDA-MB-435) of 1.41 µM. The GI50 (SK-MEL-5 melanoma) was 1.56 µM, the TGI (SK-MEL-5 melanoma) was 3.47 µM and the GI50 (SF-268 CNS) was 5.39 µM. The TGI (SF-268 CNS) was 20.6 µM, the GI50 (MCF7 breast) was 2.49 µM and the TGI (MCF7 breast) was 13.9 µM. It also gave a GI50 (KM12 colon) of 3.3 µM, a TGI (KM12 colon) of 16.4 µM and a GI50 (OVCAR-3 ovarian) of 2.07 µM. It also gave a TGI (OVCAR-3 ovarian) of 7.03 µM, a GI50 (HCT-15 colon) of 2.42 µM and a TGI (HCT-15 colon) of 15.4 µM. The GI50 (SK-MEL-2 melanoma) was 2.12 µM, the TGI (SK-MEL-2 melanoma) was 8.47 µM and the GI50 (HOP-62 NSCLC) was 5.69 µM. For the same molecule, the TGI (HOP-62 NSCLC) was 19.6 µM, the GI50 (CAKI-1 renal) was 3.87 µM and the TGI (CAKI-1 renal) was 19 µM. It also gave a GI50 (SW-620 colon) of 2.47 µM, a TGI (SW-620 colon) of 15.5 µM and a GI50 (RXF 393 renal) of 6.6 µM. It also gave a TGI (RXF 393 renal) of 22.5 µM, a GI50 (COLO 205 colon) of 17.4 µM and a TGI (COLO 205 colon) of 34.8 µM. The GI50 (PC-3 prostate) was 3.7 µM, the TGI (PC-3 prostate) was 47.1 µM and the GI50 (DU-145 prostate) was 6.94 µM. For the same molecule, the TGI (DU-145 prostate) was 19.6 µM, the GI50 (CCRF-CEM leukemia) was 3.9 µM and the TGI (CCRF-CEM leukemia) was 26 µM. For the same molecule, the GI50 (K-562 leukemia) was 0.569 µM, the TGI (K-562 leukemia) was 15.3 µM and the GI50 (ACHN renal) was 4.3 µM. The TGI (ACHN renal) was 17.7 µM, the GI50 (SN12C renal) was 3.92 µM and the TGI (SN12C renal) was 15.1 µM. For the same molecule, the GI50 (LOX IMVI melanoma) was 2.34 µM and the TGI (LOX IMVI melanoma) was 7.47 µM.
